The molecules below were run on T cell blast formation in human blood (assay: In vitro inhibition of T cell blast formation in human blood (human whole blood blast formation, PHA stimulated, flow cytometry)). Settings: Test Dose 1 × 10^−5 (unit not given), 72 hours, mean where multiple measurements.
Format: cell-based
Experimental: Cells are collected after a 72 hours culture period at 37° C., supernatant is removed by centrifugation and red blood cells are lysed by a hypotonic buffer. The remaining white blood cells are collected in PBS containing propidium iodide. The blast formation is analyzed using a benchtop flow cytometer (Cytoron, Ortho) equipped with an argon-ion laser. […] When multiple measurements were performed, a mean value was calculated for the percentage inhibition of T cell blast formation.
`Cn1nc(-c2ccc(NC(=O)C3CC(c4cccnc4)=NO3)cc2)c2ccc(F)cc21` (stereo not drawn) [Compound 465] was tested, and the “% Inhibition of T cell blast formation” value was 83%.
With `O=C(Nc1ccc(Oc2ccccc2)cc1)C1CC(c2cccnc2)=NO1` (stereo not drawn) [Compound 36] the “% Inhibition of T cell blast formation” value was 85%.

Same assay, conditions: Test Dose 1 × 10^−6 (unit not given), 72 hours, mean where multiple measurements
With `O=C(c1ccc(NC(=O)C2CC(c3cccnc3)=NO2)cc1)c1cnc2ccccc2c1` (stereo not drawn) [Compound 393] the “% Inhibition of T cell blast formation” value was 69%.
With `Cn1cnc2cc(NC(c3ccccc3)c3ccc(NC(=O)C4CC(c5cccnc5)=NO4)cc3)ccc21` (stereo not drawn) [Compound 101] the “% Inhibition of T cell blast formation” value was 70%.
In the case of `O=C(Nc1ccc(-n2cnc3ccccc32)cc1)C1CC(c2cccnc2)=NO1` (stereo not drawn) [Compound 464], the “% Inhibition of T cell blast formation” value is reported as 85%.
`O=C(NCCc1ccco1)c1ccc(NC(=O)C2CC(c3cccnc3)=NO2)cc1` (stereo not drawn) [Compound 268] was tested, and the “% Inhibition of T cell blast formation” value was 58%.
`COc1cccc(C(=O)c2ccc(NC(=O)C3CC(c4cccnc4)=NO3)cc2)c1` (stereo not drawn) [Compound 9] was tested, and the “% Inhibition of T cell blast formation” value was 71%.
For `O=C(Nc1ccc(C(=NO)c2ccccc2)cc1)C1CC(c2cccnc2)=NO1` (single isomer, unassigned) [Compound 420], the “% Inhibition of T cell blast formation” value was 39%.
With `CC(C)(NC(=O)c1ccc(NC(=O)C2CC(c3cccnc3)=NO2)cc1)c1ccccc1` (stereo not drawn) [Compound 259] the “% Inhibition of T cell blast formation” value was 51%.
`O=C(c1ccc(F)cc1)c1ccc(NC(=O)C2CC(c3cccnc3)=NO2)cc1` (stereo not drawn) [Compound 13] was tested, and the “% Inhibition of T cell blast formation” value was 78%.
For `NC(c1ccccc1)c1ccc(NC(=O)[C@@H]2CC(c3cccnc3)=NO2)cc1` (stereo partly drawn) [Compound 205, [5S-(A)]-N-[4-(aminophenylmethyl)phenyl]4,5-dihydro-3-(3-pyridinyl)-5-isoxazolecarboxamide], the “% Inhibition of T cell blast formation” value was 73%.
In the case of `COC(=O)OC(C#N)(c1ccccc1)c1ccc(NC(=O)C2CC(c3cccnc3)=NO2)cc1` (stereo not drawn) [Compound 524], the “% Inhibition of T cell blast formation” value is reported as 81%.
In the case of `O=C(Nc1ccc(C(Nc2cccc(Cl)c2)c2ccccc2)cc1)C1CC(c2cccnc2)=NO1` (stereo not drawn) [Compound 216], the “% Inhibition of T cell blast formation” value is reported as 70%.
`CC(C)NC(c1ccccc1)c1ccc(NC(=O)C2CC(c3cccnc3)=NO2)cc1` (stereo not drawn) [Compound 100] was tested, and the “% Inhibition of T cell blast formation” value was 35%.
For `COc1ccc(/C=C/C(=O)c2ccc(NC(=O)C3CC(c4cccnc4)=NO3)cc2)c(C)c1C` (racemic) [Compound 479], the “% Inhibition of T cell blast formation” value was 85%.
For `O=C(NCc1ccccc1Br)c1ccc(NC(=O)C2CC(c3cccnc3)=NO2)cc1` (stereo not drawn) [Compound 269], the “% Inhibition of T cell blast formation” value was 67%.
`O=C(Nc1ccc(C(O)c2ccccn2)cc1)C1CC(c2cccnc2)=NO1` (single isomer, unassigned) [Compound 525] was tested, and the “% Inhibition of T cell blast formation” value was 74%.
With `O=C(Nc1ccc(C(NCc2ccncc2)c2ccccc2)cc1)C1CC(c2cccnc2)=NO1` (stereo not drawn) [Compound 97] the “% Inhibition of T cell blast formation” value was 58%.
For `Cc1nc2ccccc2n1-c1ccc(NC(=O)C2CC(c3cccnc3)=NO2)cc1` (stereo not drawn) [Compound 467], the “% Inhibition of T cell blast formation” value was 82%.
For `C#CC(O)(c1ccccc1)c1ccc(NC(=O)C2CC(c3cccnc3)=NO2)cc1` (racemic) [Compound 69, [B(R)]±[B(S)]-4,5-dihydro-N-[4-(1-hydroxy-1-phenyl-2-propynyl)phenyl]-3-(3-pyridinyl)-5-isoxazolecarboxamide], the “% Inhibition of T cell blast formation” value was 73%.
In the case of `CC(=O)Nc1ccccc1NC(c1ccccc1)c1ccc(NC(=O)C2CC(c3cccnc3)=NO2)cc1` (stereo not drawn) [Compound 174], the “% Inhibition of T cell blast formation” value is reported as 42%.
For `NC(=O)C(c1ccc(Cl)cc1)c1ccc(NC(=O)C2CC(c3cccnc3)=NO2)cc1Cl` (stereo not drawn) [Compound 309], the “% Inhibition of T cell blast formation” value was 92%.
With `CN1CCC(CNC(c2ccccc2)c2ccc(NC(=O)C3CC(c4cccnc4)=NO3)cc2)CC1` (stereo not drawn) [Compound 103] the “% Inhibition of T cell blast formation” value was 82%.
In the case of `Cn1ncc2ccc(CNC(c3ccccc3)c3ccc(NC(=O)C4CC(c5cccnc5)=NO4)cc3)cc21` (stereo not drawn) [Compound 94], the “% Inhibition of T cell blast formation” value is reported as 44%.
For `O=C(Nc1ccc(C(NC2CCN(Cc3ccccc3)CC2)c2ccccc2)cc1)C1CC(c2cccnc2)=NO1` (stereo not drawn) [Compound 104], the “% Inhibition of T cell blast formation” value was 60%.
For `COc1ccccc1CNC(=O)c1ccc(NC(=O)C2CC(c3cccnc3)=NO2)cc1` (stereo not drawn) [Compound 285], the “% Inhibition of T cell blast formation” value was 72%.
For `O=C(Nc1ccc(C(c2ccccc2)N2CCOCC2)cc1)C1CC(c2cccnc2)=NO1` (stereo not drawn) [Compound 221], the “% Inhibition of T cell blast formation” value was 63%.
For `Cc1ccc(CNC(=O)c2ccc(NC(=O)C3CC(c4cccnc4)=NO3)cc2)cc1` (stereo not drawn) [Compound 273], the “% Inhibition of T cell blast formation” value was 62%.
With `C=CCOc1ccccc1/C=C/C(=O)c1ccc(NC(=O)C2CC(c3cccnc3)=NO2)cc1` (racemic) [Compound 470] the “% Inhibition of T cell blast formation” value was 87%.
`O=C(Nc1ccc(C(=NO)c2cnc3ccccc3c2)cc1)C1CC(c2cccnc2)=NO1` (stereo not drawn) [Compound 432] was tested, and the “% Inhibition of T cell blast formation” value was 65%.
For `CON=C(c1ccccc1)c1ccc(NC(=O)C2CC(c3cccnc3)=NO2)cc1` (stereo not drawn) [Compound 303], the “% Inhibition of T cell blast formation” value was 78%.
With `O=C(Nc1ccc(C(O)(c2ccccc2)c2ccccn2)cc1)C1CC(c2cccnc2)=NO1` (single isomer, unassigned) [Compound 68] the “% Inhibition of T cell blast formation” value was 61%.
For `COc1cc(C(=O)c2ccc(NC(=O)C3CC(c4cccnc4)=NO3)cc2)cc(OC)c1OC` (stereo not drawn) [Compound 396], the “% Inhibition of T cell blast formation” value was 65%.
For `COC(C(N)=O)(c1ccccc1)c1ccc(NC(=O)C2CC(c3cccnc3)=NO2)cc1` (stereo not drawn) [Compound 442], the “% Inhibition of T cell blast formation” value was 75%.
In the case of `O=C(CCc1ccccc1)c1ccc(NC(=O)C2CC(c3cccnc3)=NO2)cc1` (stereo not drawn) [Compound 380], the “% Inhibition of T cell blast formation” value is reported as 67%.
In the case of `O=C(Nc1ccc(C(NC2CC2)c2ccccc2)cc1)C1CC(c2cccnc2)=NO1` (stereo not drawn) [Compound 90], the “% Inhibition of T cell blast formation” value is reported as 33%.
For `COc1cccc(OC)c1C(=O)c1ccc(NC(=O)C2CC(c3cccnc3)=NO2)cc1` (stereo not drawn) [Compound 397], the “% Inhibition of T cell blast formation” value was 82%.
In the case of `O=C(Nc1ccc(C(Nc2ccc3[nH]nnc3c2)c2ccccc2)cc1)C1CC(c2cccnc2)=NO1` (stereo not drawn) [Compound 96], the “% Inhibition of T cell blast formation” value is reported as 39%.

Same assay, conditions: Test Dose 1 × 10^−7 (unit not given), 72 hours, mean where multiple measurements
With `O=C(c1ccc(NC(=O)C2CC(c3cccnc3)=NO2)cc1)c1ccccn1` (single isomer, unassigned) [Compound 489] the “% Inhibition of T cell blast formation” value was 80%.
In the case of `O=C(Nc1ccc(C(=NO)c2ccc(F)cc2F)cc1)C1CC(c2cccnc2)=NO1` (stereo not drawn) [Compound 435], the “% Inhibition of T cell blast formation” value is reported as 81%.
In the case of `COc1ccc(OC)c(C(=NO)c2ccc(NC(=O)C3CC(c4cccnc4)=NO3)cc2)c1` (stereo not drawn) [Compound 440], the “% Inhibition of T cell blast formation” value is reported as 77%.
For `O.O=C(c1ccccc1)c1ccc(NC(=O)[C@@H]2CC(c3cccnc3)=NO2)cc1` [Compound 491, (S)-N-(4-benzoylphenyl)-4,5-dihydro-3-(3-pyridinyl)-5-isoxazolecarboxamide (1:1) monohydrate], the “% Inhibition of T cell blast formation” value was 70%.
For `COc1ccc(C(=NO)c2ccc(NC(=O)C3CC(c4cccnc4)=NO3)cc2)c(OC)c1` (stereo not drawn) [Compound 438], the “% Inhibition of T cell blast formation” value was 82%.
In the case of `COc1ccccc1C(=NO)c1ccc(NC(=O)C2CC(c3cccnc3)=NO2)cc1` (stereo not drawn) [Compound 434], the “% Inhibition of T cell blast formation” value is reported as 83%.
For `O=C(Nc1ccc(C(=NO)c2ccccc2)cc1)C1CC(c2cccnc2)=NO1` (single isomer, unassigned) [Compound 419], the “% Inhibition of T cell blast formation” value was 86%.

Same assay, conditions: Test Dose 3 × 10^−7 (unit not given), 72 hours, mean where multiple measurements
With `O=C(/C=C/c1c(F)cccc1F)c1ccc(NC(=O)C2CC(c3cccnc3)=NO2)cc1` (racemic) [Compound 468] the “% Inhibition of T cell blast formation” value was 61%.
For `Nc1cccc(F)c1CNC(=O)c1ccc(NC(=O)C2CC(c3cccnc3)=NO2)cc1` (stereo not drawn) [Compound 292], the “% Inhibition of T cell blast formation” value was 40%.
With `N#CC(OC(N)=O)(c1ccccc1)c1ccc(NC(=O)C2CC(c3cccnc3)=NO2)cc1` (racemic) [Compound 75, (±)-[cyano[4-[[[4,5-dihydro-3-(3-pyridinyl)-5-isoxazolyl]carbonyl]amino]phenyl]phenylmethyl]carbamate] the “% Inhibition of T cell blast formation” value was 67%.
In the case of `O=C(Nc1ccc(C(Nc2ccc(C(F)(F)F)cc2Br)c2ccccc2)cc1)C1CC(c2cccnc2)=NO1` (stereo not drawn) [Compound 218], the “% Inhibition of T cell blast formation” value is reported as 33%.
For `Cn1cc(C(=O)c2ccc(NC(=O)C3CC(c4cccnc4)=NO3)cc2)cn1` (stereo not drawn) [Compound 386], the “% Inhibition of T cell blast formation” value was 38%.
`O=C(Nc1ccc(C(O)c2ccccc2)cc1)[C@@H]1CC(c2cccnc2)=NO1` (stereo partly drawn) [Compound 412] was tested, and the “% Inhibition of T cell blast formation” value was 79%.
`CN(C)Cc1csc(NC(=O)C(c2ccccc2)c2ccc(NC(=O)C3CC(c4cccnc4)=NO3)cc2)n1` (stereo not drawn) [Compound 314] was tested, and the “% Inhibition of T cell blast formation” value was 58%.
For `COc1ccccc1/C=C/C(=O)c1ccc(NC(=O)C2CC(c3cccnc3)=NO2)cc1` (racemic) [Compound 477], the “% Inhibition of T cell blast formation” value was 63%.
In the case of `O=C(/C=C/c1c(F)cccc1Cl)c1ccc(NC(=O)C2CC(c3cccnc3)=NO2)cc1` (racemic) [Compound 476], the “% Inhibition of T cell blast formation” value is reported as 67%.
For `O=C(c1ccc(NC(=O)C2CC(c3cccnc3)=NO2)cc1)c1cccnc1` (stereo not drawn) [Compound 387], the “% Inhibition of T cell blast formation” value was 78%.
For `O=C(Nc1ccc(Nc2ccc(S(=O)(=O)C(F)(F)F)cc2)cc1)C1CC(c2cccnc2)=NO1` (stereo not drawn) [Compound 376], the “% Inhibition of T cell blast formation” value was 69%.
`CN(CCC1OCCO1)C(c1ccccc1)c1ccc(NC(=O)C2CC(c3cccnc3)=NO2)cc1` (stereo not drawn) [Compound 122] was tested, and the “% Inhibition of T cell blast formation” value was 36%.
In the case of `O=C(Nc1ccc(C(O)(Cc2cccnc2)c2ccccc2)cc1)C1CC(c2cccnc2)=NO1` (stereo not drawn) [Compound 73], the “% Inhibition of T cell blast formation” value is reported as 67%.
`CC(C)OC(=O)OC(c1ccccc1)c1ccc(NC(=O)[C@@H]2CC(c3cccnc3)=NO2)cc1` (stereo partly drawn) [Compound 508, [5S(A)]-[4-[[[4,5-dihydro-3-(3-pyridinyl)-5-isoxazolyl]carbonyl]amino]phenyl]phenylmethyl 1-methylethyl carbonic acid (ester)] was tested, and the “% Inhibition of T cell blast formation” value was 70%.
With `O=C(Nc1ccc(C(O)c2ccncc2)cc1)C1CC(c2cccnc2)=NO1` (stereo not drawn) [Compound 407] the “% Inhibition of T cell blast formation” value was 63%.
